Data reported in patent US20110009381A1, “SOLUBILIZED THIAZOLOPYRIDINES” (Sirtis Pharmaceuticals, Inc., priority 2007, published 2011).

Target: T1, SIRT1 (Homo sapiens, UniProt Q96EB6)
T1 sequence (Q96EB6 1-747): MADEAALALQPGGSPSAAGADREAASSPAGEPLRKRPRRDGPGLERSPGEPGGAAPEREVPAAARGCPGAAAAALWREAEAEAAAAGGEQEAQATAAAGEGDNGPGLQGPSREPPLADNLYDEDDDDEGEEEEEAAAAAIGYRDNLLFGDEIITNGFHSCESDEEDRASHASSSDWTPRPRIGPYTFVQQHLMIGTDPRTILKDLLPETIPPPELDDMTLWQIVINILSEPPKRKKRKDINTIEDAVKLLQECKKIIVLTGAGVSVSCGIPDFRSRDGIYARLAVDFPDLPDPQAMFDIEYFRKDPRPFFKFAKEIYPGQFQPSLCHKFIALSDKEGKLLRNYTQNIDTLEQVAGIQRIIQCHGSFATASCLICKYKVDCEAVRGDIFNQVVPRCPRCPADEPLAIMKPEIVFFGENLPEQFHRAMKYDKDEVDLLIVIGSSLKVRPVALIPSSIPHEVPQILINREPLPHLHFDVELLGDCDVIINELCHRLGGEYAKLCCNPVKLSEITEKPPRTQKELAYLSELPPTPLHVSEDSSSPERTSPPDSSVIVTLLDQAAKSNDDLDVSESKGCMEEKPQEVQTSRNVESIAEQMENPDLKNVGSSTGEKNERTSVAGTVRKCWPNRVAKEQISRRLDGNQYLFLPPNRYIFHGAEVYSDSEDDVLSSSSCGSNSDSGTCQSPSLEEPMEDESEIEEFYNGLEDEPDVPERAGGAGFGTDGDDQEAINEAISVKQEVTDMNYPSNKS
Test: Mass spectrometry based assay to identify modulators of SIRT1 activity (deacetylation of p53-based acetylated peptide substrate)
Assay type: biochemical
Details: 10 nM SIRT1, 0.5 μM peptide substrate, 120 μM βNAD+, 25 minutes at 25° C.; for EC1.5: SIRT1 activation
Summary of the method: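 Activation measured on His-tagged SIRT1 (10 nM, E. coli-expressed) deacetylating a 0.5 μM p53-derived acetyl-peptide with 120 μM βNAD^+ for 25 min at 25 °C, pH 8 Tris-acetate. After formic acid stop, mass spectrometry quantified acetylated versus deacetylated peptide, referenced to DMSO and nicotinamide controls. Reported as EC1.5 and maximum fold activation.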

Row | Compound | FOLD ACT. (percent maximum fold activation) | EC1.5
1 | O=C(Nc1ccccc1-c1nc2cccnc2s1)c1cc(Cl)nc(-c2ccccc2)n1 [Compound 8] | C (Fold Activation<150%) | C (EC1.5>10 uM)
2 | CCS(=O)(=O)CCNc1cc(C(=O)Nc2ccccc2-c2nc3cccnc3s2)nc(-c2ccccc2)n1 [Compound 74] | A (Fold activation≧300%) | A′ (EC1.5<250 nM)
3 | COCCNc1cc(C(=O)Nc2ccccc2-c2nc3ccncc3s2)nc(-c2ccccc2)n1 [Compound 27] | A (Fold activation≧300%) | A (EC1.5≧250 nM and ≦1 uM)
4 | CCSCCNc1cc(C(=O)Nc2ccccc2-c2nc3cccnc3s2)nc(-c2ccccc2)n1 [Compound 73] | B (Fold Activation≧150% and <300%) | B (EC1.5>1 and ≦10 uM)
5 | O=C(Nc1ccccc1-c1nc2cccnc2s1)c1cc(OC[C@H](O)CO)cc(-c2ccccc2)n1 [Compound 126] | A (Fold activation≧300%) | A′ (EC1.5<250 nM)
6 | CNCCN(C)c1cc(C(=O)Nc2ccccc2-c2nc3cccnc3s2)nc(-c2ccccc2)n1 [Compound 147] | A (Fold activation≧300%) | A′ (EC1.5<250 nM)
7 | O=C(Nc1ccccc1-c1nc2cccnc2s1)c1cc(NCC2CCCCN2)nc(-c2ccccc2)n1 (stereo not shown) [Compound 89] | A (Fold activation≧300%) | A′ (EC1.5<250 nM)
8 | O=C(Nc1ccccc1-c1nc2cccnc2s1)c1cc(N2CCN3CCC[C@H]3C2)cc(-c2ccccc2)n1 [Compound 144] | A (Fold activation≧300%) | A′ (EC1.5<250 nM)
9 | O=C(Nc1ccccc1-c1nc2cccnc2s1)c1ccc(CN2CCOCC2)c(-c2ccccc2)n1 [Compound 77] | B (Fold Activation≧150% and <300%) | A (EC1.5≧250 nM and ≦1 uM)
10 | CN(C)CCNc1cc(C(=O)Nc2ccccc2-c2nc3cccnc3s2)nc(-c2ccccc2)c1 [Compound 110] | A (Fold activation≧300%) | A′ (EC1.5<250 nM)
11 | O=C(Nc1ccccc1-c1nc2ccncc2s1)c1cc(NCc2cccnc2)nc(-c2ccccc2)n1 [Compound 31] | B (Fold Activation≧150% and <300%) | A (EC1.5≧250 nM and ≦1 uM)
12 | NCCCOc1cc(C(=O)Nc2ccccc2-c2nc3cccnc3s2)nc(-c2ccccc2)n1 [Compound 76] | A (Fold activation≧300%) | A′ (EC1.5<250 nM)

Now from value to compound:

Row | FOLD ACT. (percent maximum fold activation) | EC1.5 | Compound
13 | A (Fold activation≧300%) | A′ (EC1.5<250 nM) | O=C(Nc1ccccc1-c1nc2cccnc2s1)c1cc(N2CCOCC2)cc(-c2ccccc2)n1 [Compound 129]
14 | A (Fold activation≧300%) | A′ (EC1.5<250 nM) | COCCN1CCN(c2cc(C(=O)Nc3ccccc3-c3nc4cccnc4s3)nc(-c3ccccc3)c2)CC1 [Compound 124]
15 | A (Fold activation≧300%) | A′ (EC1.5<250 nM) | O=C(Nc1ccccc1-c1nc2cccnc2s1)c1cc(N2C[C@H]3C[C@@H]2CN3)nc(-c2ccccc2)n1 [Compound 71]
16 | B (Fold Activation≧150% and <300%) | A (EC1.5≧250 nM and ≦1 uM) | Cc1nc(CCNc2cc(C(=O)Nc3ccccc3-c3nc4cccnc4s3)nc(-c3ccccc3)n2)cs1 [Compound 53]
17 | A (Fold activation≧300%) | A′ (EC1.5<250 nM) | Cc1cccc(-c2nc(NCCN3CCOCC3)cc(C(=O)Nc3ccccc3-c3nc4cccnc4s3)n2)c1 [Compound 133]
18 | A (Fold activation≧300%) | A (EC1.5≧250 nM and ≦1 uM) | CN(C)CCOc1cc(C(=O)Nc2ccccc2-c2nc3cccnc3s2)nc(-c2ccccc2)n1 [Compound 94]
19 | A (Fold activation≧300%) | A′ (EC1.5<250 nM) | O=C(Nc1ccccc1-c1nc2cccnc2s1)c1cc(NCC2CCCNC2)nc(-c2ccccc2)n1 (stereo not shown) [Compound 109]
20 | B (Fold Activation≧150% and <300%) | A (EC1.5≧250 nM and ≦1 uM) | O=C(Nc1ccccc1-c1nc2cccnc2s1)c1cc(OCCCO)nc(-c2ccccc2)n1 [Compound 102]
